Measurements published in US20260355318A1, “MOLECULAR MACHINES FOR TREATMENT OF CANCER, FUNGAL INFECTIONS, OR BACTERIAL INFECTIONS” (priority 2022, published 2026).

Tests used:
C. albicans [1] = experiment: Checkerboard interaction with conventional antifungals (FICI), C. albicans; type: cell-based, Candida albicans; details: for FICI: 405-nm light
Procedure: A modified checkerboard assay was used to study the interaction of visible-light-activated MMs with conventional antifungals in C. albicans. […] The type of interaction between MMs and conventional antifungals was assessed by calculating the fractional inhibitory concentration index (FICI), with a FICI of ≤0.5, 0.5<x≤4, or >4, denoting synergistic, additive, or antagonistic interactions, respectively (Odds, 2003).
The interaction of MMs with conventional antifungal agents in C. albicans was investigated by determining the MIC of different antifungals alone and after treatment with visible-light-activated MMs using a modified broth microdilution checkerboard assay (Cantón et al., 2005) in an 8×8-well configuration. […] The fractional inhibitory concentration index (FICI) was determined as the sum of the MIC of the MM and the antifungal drug when used in combination divided by their MIC when used alone. An FICI index of ≤0.5, 0.5<x≤4, or >4 indicates synergistic, additive, and antagonistic interactions, respectively (Odds, 2003).

HEK293T cells = experiment: Toxicity to HEK293T cells (CellTiter-Glo) and therapeutic index; type: cell-based, human; details: ratio between IC50 (HEK293T) and MIC
Procedure: The toxicity of visible-light-activated MMs to mammalian cells was investigated in human embryonic kidney cells (HEK293T) treated with increasing MM concentrations and 87.6 J cm^−2 of 405-nm light. […] The MM concentration that reduced viability by 50% (IC50), calculated from dose-response curves (FIG. 16C), ranged from 1.61-6.02 µM (FIG. 16D). The IC50 and MIC were used to calculate the therapeutic index. With a therapeutic index ≥1 (FIG. 16D), MM 1 was used for in vivo and ex vivo studies.
The biocompatibility of MMs with […] HEK293T cells was assessed using the CellTiter-Glo® Luminescent Cell Viability Assay (Promega, WI, USA) per the manufacturer's instructions by treating cells with increasing concentrations of different MMs plus 405-nm light (87.6 J cm^−2). Dose-response curves were used to determine the MM concentrations that reduced cell viability by 50% (IC50). The therapeutic index was calculated as the ratio between the IC50 and the MIC.

C. albicans [2] = experiment: In vivo G. mellonella model, C. albicans infection (survival, fungal burden); set-up: species or system Galleria mellonella; details: C. albicans-infected G. mellonella, 1×MIC
Procedure: The in vivo antifungal activity of MMs was assessed in G. mellonella (Li et al., 2013; (Slater et al., 2011). G. mellonella were acquired from a commercial supplier (rainbowmealworms.net) in their final instar larval stage. Worms of similar size (~0.3 g), responsive to touch, and displaying no signs of melanization were selected. C. albicans (~10^5 CFU mL^−1) and A. fumigatus conidia (~104 conidia mL^−1) suspensions were prepared in PBS as previously described. The fungal inoculum (5 μL) was injected into the last left proleg of the worms with a Hamilton syringe. Thirty minutes after infection, MM and/or antifungal agents (1×MIC, Table 2) diluted in sterile water were injected similarly to the right proleg. […] After 30 min, worms in the irradiated treatment groups were transferred to 24-well plates (Corning-Costar Corp., Corning, NY, USA) and irradiated with 405-nm light (87.6 J cm^−2). Worms were incubated in sterile Petri dishes at 30 ° C in the dark. Live and dead worms were scored each day for 7 days. Melanized or unresponsive worms were considered dead.
Fungal load was assessed in a separate group of similarly treated worms 48 h after infection. Only healthy larvae (four worms per treatment group) with no melanization spots were used. […] After 48 h at 30 ° C (C. albicans) or 7 days at 28 ° C (A. fumigatus), colonies were counted to determine CFU per mg of larvae.

T. rubrum = experiment: Ex vivo onychomycosis porcine nail model; set-up: species or system Trichophyton rubrum on porcine nails; key to Summary of significance, fungal load: * p<0.05; ** p<0.01; *** p<0.001; **** p<0.0001; ns: non-significant; details: for Mean rank diff. of fungal load: T. rubrum nails
Procedure: For microconidia preparation, T. rubrum was inoculated on potato dextrose agar containing 0.025% Sabouraud dextrose broth (SDB) and 1.0% penicillin-streptomycin. After a 10-day incubation at 28 ° C, the plates were flooded with PBS, which was then aspirated and filtered through a sterilized cotton gauze to recover microconidia (Ma et al., 2022).
An ex vivo onychomycosis model was established as previously described (Quatrin et al., 2020) with modifications. Pig hooves with exposed toenails were processed into ~1 cm^2-sized individual toenail samples with a band saw, washed with 70% ethyl alcohol and sterilized water, and inoculated with a microconidia suspension of T. rubrum (~10^7 conidia mL^−1) for 3 h. Samples were placed in a Petri dish containing moist sterilized paper and incubated at 28 ° C for 10 days. Fungal growth was confirmed by sample resuspension in PBS and plating on PDA containing 0.025% SDB and 1% penicillin-streptomycin. Infected samples were then treated with (1) 1% DMSO plus light, (2) monotherapy with MM 1 alone (0.77% in DMSO) plus light, (3) monotherapy with conventional antifungal (three drops (Quatrin et al., 2020) of Ciclopirox Topical Suspension USP, 0.77% “Lotion”, Leading Pharma, LLC, NY, USA, or Ciclopirox Topical Solution, 8% “Lacquer”, Perrigo New York Inc., NY, USA), or (4) combination therapy with MM 1 plus light and conventional antifungal. Each treatment group consisted of three samples. After 30 min, samples in the irradiated treatment groups were transferred to 24-well plates (Corning-Costar Corp., Corning, NY, USA) and irradiated with 405-nm light (87.6 J cm^−2). Treatment was repeated every 24 h for 5 days. Afterward, the samples were transferred to tubes containing PBS plus 1% penicillin-streptomycin, vortexed, and sonicated (Quatrin et al., 2020). Triplicate aliquots of this suspension were inoculated on PDA plates containing 1% penicillin-streptomycin. After a 10-day incubation at 28 ° C, CFU numbers were determined. Untreated samples served as positive controls.

[3] = Photodegradation of MMs by 1H NMR; type: physicochemical; details: 5 min, 146 mW cm^−2 405 nm, DMSO-d6
Procedure: Aromatic region of ^1H NMR (600 MHz) spectra of MM 1 (300 mM in DMSO-d6) before and after irradiation for 5 min with 146 mW cm^−2 of 405 nm light.

## C[C@@H]1Cc2ccc3ccccc3c2/C1=C1\c2ccccc2Sc2cc(NCCN(C)C)ccc21 [MM 1, N^1N^1-dimethyl-N^2-(9-(2-methyl-2,3-dihydro-1H-cyclopenta[a]naphthalen-1-ylidene)-9H-thioxanthen-3-yl) ethane-1,2-diamine]
C. albicans [1]
  type of interaction with conventional antifungals: synergized with all antifungals tested
C. albicans [1]; MM 1 + ciclopirox
  FICI: 0.093
C. albicans [1]; MM 1 + fluconazole
  FICI: 0.500
C. albicans [1]; MM 1 + voriconazole
  FICI: 0.500
HEK293T cells
  therapeutic index: ≥ 1
C. albicans [2]
  time by which all worms died: ≤ 3 days
T. rubrum; 1% DMSO vs treatment
  Summary of significance, fungal load: ** (** p<0.01)
  Mean rank diff. of fungal load: 28.00
T. rubrum; CPX Lacquer vs treatment
  Summary of significance, fungal load: ns
  Mean rank diff. of fungal load: 14.33
T. rubrum; CPX Lotion vs treatment
  Summary of significance, fungal load: ns
  Mean rank diff. of fungal load: 14.67
T. rubrum; Trichophyton rubrum, topical, T. rubrum, 0.77% (w/v) MM 1 + 405-nm light, vs DMSO controls, read-out: reduction of fungal burden in porcine nails
  log reduction at 7700 µg/mL: ~2
[3]
  photodegradation: does not cause detectable photodegradation of MMs
